Values joined by “and” are separate entries in the source; they are usually repeats but may differ in a detail not shown here. Identical values can stand only once. Like-named read-outs stand apart in the source and are kept apart here.
How the values were obtained:
[1] = tested on: SARS-CoV-2-nLUC; type: cell-based; details: Nirmatrelvir 0 uM
[2] = tested on: SARS-CoV-2-nLUC; experiment: microbe, parasite or virus in culture; type: cell-based; details: for viral inhibition (EC50 curve data): Huh7A2T2, log[Lonafarnib]; for Replication: LNF
[3] = tested on: SARS-CoV-2; type: cell-based; details: for percentage replication relative to untreated, infected control: LNF 10 μM
[4] = in vitro; details: human
[5] = Pharmacokinetics after PO administration; details: K18-hACE2(Tg) C57Bl/6J, mouse, 25 mg/kg; for Kp / half-life: in vivo, PO; for Kp: AUC ratio (Tissue/PL)
[6] = tested on: SARS-CoV-2 replicon; experiment: microbe, parasite or virus in culture; type: cell-based
[7] = tested on: SARS-CoV-2 spike protein–mediated cell-cell fusion (B.1.617); type: cell-based; details: 48 h
[8] = in vitro; details: human; remark: listed apart in the source
[9] = tested on: SARS-CoV-2-nLUC; type: cell-based; details: Nirmatrelvir 0 uM, sheet S3B, replicates
[10] = tested on: SARS-CoV-2 BA.1 (Omicron); type: cell-based; details: VeroE6, 10 μM LNF, 24 h, DMSO = 100%

Structure (SMILES): NC(=O)N1CCC(CC(=O)N2CCC([C@H]3c4ncc(Br)cc4CCc4cc(Cl)cc(Br)c43)CC2)CC1 [LNF, lonafarnib]
- Response ([1]; Lonafarnib 2.5 uM): 71.2556 and 72.7427 and 61.8907
- Response ([1]; Lonafarnib 5 uM): 96.7703 and 97.5859 and 97.3674
- selectivity index (SI = CC50/EC50) [2]: greater than 10
- viral inhibition (EC50 curve data) ([2]; μM 0.39794, 24 h): 31.0378 and 31.6733 and 41.1788 and 40.0144
- viral inhibition (EC50 curve data) ([2]; μM 1, 24 h): 85.1292 and 83.5424 and 87.1345 and 86.5675
- Replication ([2]; Log[LNF} mM 0.09691): 60.948 and 56.887 and 64.8083
- Replication ([2]; Log[LNF} mM 0.39794): 44.056 and 34.731 and 47.009
- Replication ([2]; Log[LNF} mM 1): 12.4102 and 12.97 and 12.6676
- Replication ([2]; Log[LNF} mM -0.522879): 64.2793 and 76.4681 and 101.013
- EC50 ([2]; Severe acute respiratory syndrome coronavirus 2, 24 h, Huh7.5A2T2, 24 h, Fig 1G, read-out: EC50): 3.46 µM
- EC50 ([2]; Severe acute respiratory syndrome coronavirus 2, 24 h, VeroE6T2, 24 h, Fig 1G, read-out: EC50): 2.24 µM
- EC50 ([2]; Severe acute respiratory syndrome coronavirus 2, Calu-3, 24 h, Calu3, 24 h, Fig 1G, read-out: EC50): 3.11 µM
- EC50 ([2]; Severe acute respiratory syndrome coronavirus 2, Vero C1008, 24 h, VeroE6, 24 h, Fig 1G, Fig 5B, read-out: EC50): 2.03 µM
- EC50 ([2]; Severe acute respiratory syndrome coronavirus 2, VeroE6, Huh7.5A2T2, VeroE6T2, Calu3, read-out: EC50 values, range over cell lines): 2.03 to 3.46 µM
- EC50 ([2]; VeroE6, 24 h, Fig 1G, Fig 5B, read-out: EC50): 2 µM
- time-of-addition result [3]: high efficacy of LNF even if the drug was added 4–24 hours after infection
- effect on early events of viral infection ([3]; Calu3, 10 μM): little or no effect on the early events of viral infection
- effect when drug present during an initial period of viral infection ([3]; VeroE6, 10 μM): 50%
- percentage replication relative to untreated, infected control ([3]; VeroE6, drug present (0,4) h): 51.9274% and 49.1443% and 50.2213% and 50.0245% and 32.7935% and 31.4407% and 36.9633% and 35.1922%
- percentage replication relative to untreated, infected control ([3]; VeroE6, drug present (0,24) h): 1.998% and 1.949% and 1.813% and 1.81% and 1.891% and 1.817% and 1.711% and 1.724%
- percentage replication relative to untreated, infected control ([3]; VeroE6, drug present (2,4) h): 73.914% and 71.0289% and 54.3207% and 56.213% and 71.519% and 69.7874% and 67.1461% and 65.4707%
- percentage replication relative to untreated, infected control ([3]; VeroE6, drug present (2,24) h): 3.962% and 4.023% and 3.69% and 3.889% and 3.6% and 3.5757% and 3.292% and 3.351%
- percentage replication relative to untreated, infected control ([3]; VeroE6, drug present (4,24) h): 4.215% and 4.26% and 5.337% and 5.659% and 5.734% and 5.806% and 3.6315% and 3.627%
- percentage replication relative to untreated, infected control ([3]; VeroE6, drug present (-2,0) h): 98.397% and 97.5913% and 93.062% and 94.6733% and 95.1896% and 94.1548% and 95.9294% and 95.558%
- percentage replication relative to untreated, infected control ([3]; VeroE6, drug present (-2,2) h): 55.8703% and 55.9821% and 50.6506% and 51.7567% and 51.3569% and 50.1515% and 51.6639% and 51.979%
- percentage replication relative to untreated, infected control ([3]; VeroE6, drug present (-2,4) h): 43.6671% and 43.2347% and 41.1828% and 42.7136% and 40.9571% and 40.8036% and 42.923% and 42.3078%
- percentage replication relative to untreated, infected control ([3]; VeroE6, drug present (-2,24) h): 1.731% and 1.694% and 2.365% and 2.435% and 2.361% and 2.315% and 1.913% and 1.91%
- CC50 [4]: > 30 µM
- AUC(0-inf) ([5]; brain): 3 µM·h
- Cmax ([5]; brain): 0.21 µM
- Tmax ([5]; brain): 7 h
- AUC(0-inf) ([5]; heart): 97 µM·h
- Cmax ([5]; heart): 8.6 µM
- Tmax ([5]; heart): 1 h
- Kp ([5]; Brain): 0.056
- Kp ([5]; Heart): 1.8
- Kp ([5]; Kidney): 2.1
- Kp ([5]; Liver): 5.2
- Kp ([5]; Lung): 2.4
- half-life ([5]; t1/2, Brain): 2.4 h
- half-life ([5]; t1/2, Heart): 2.2 h
- half-life ([5]; t1/2, Kidney): 2.4 h
- half-life ([5]; t1/2, Liver): 1.7 h
- half-life ([5]; t1/2, Lung): 2.1 h
- half-life ([5]; t1/2, Plasma): 1.4 h
- AUC(0-inf) ([5]; kidney): 113 µM·h
- Cmax ([5]; kidney): 9.3 µM
- Tmax ([5]; kidney): 1 h
- AUC(0-inf) ([5]; liver): 279 µM·h
- Cmax ([5]; liver): 20 µM
- Tmax ([5]; liver): 7 h
- AUC(0-inf) ([5]; lung): 129 µM·h
- Cmax ([5]; lung): 33 µM
- Tmax ([5]; lung): 0.25 h
- AUC(0-inf) ([5]; plasma): 53 µM·h
- Cmax ([5]; plasma): 3.8 µM
- Tmax ([5]; plasma): 7 h
- EC50 [6]: 7.8 µM
- Inhibition [6]: 99.8867
- Inhibition ([6]; Log[LNF} mM 1): 58.6507 and 68.927 and 62.2766 and 74.1393
- EC50 ([6]; Severe acute respiratory syndrome coronavirus 2, Huh7.5, 24 h): 7.88 µM
- relative luciferase signals ([7]; Conc-mM 0.3 (printed)): 89.139 and 98.5081 and 88.3035 and 100.955
- relative luciferase signals ([7]; Conc-mM 1 (printed)): 86.0359 and 78.2183 and 102.626 and 94.5695
- relative luciferase signals ([7]; Conc-mM 3 (printed)): 65.1493 and 69.6847 and 66.5219 and 76.0103
- relative luciferase signals ([7]; Conc-mM 10 (printed)): 35.8018 and 38.2651 and 35.7143 and 29.2527
- CC50 [8]: > 30 µM
- Response ([9]; Lonafarnib 0.15625 uM): 2.22 and 4.213 and 2.074
- Response ([9]; Lonafarnib 0.3125 uM): 1.244 and 2.405 and 2.249
- Response ([9]; Lonafarnib 0.625 uM): -2.027 and 1.3173 and 0.3833
- Response ([9]; Lonafarnib 1.25 uM): 5.206 and 5.033 and 2.62
- Response ([9]; Lonafarnib 2.5 uM): 26.488 and 26.5645 and 16.3468
- Response ([9]; Lonafarnib 5 uM): 76.2414 and 75.9942 and 62.6493
- % Genome [10]: 3.11% and 3.81% and 4.35%

Reference: PMC11721293 (JCI Insight, 2025)
